Experimental data as given in ChEMBL document CHEMBL4699592, “Nature-Inspired (di)Azine-Bridged Bisindole Alkaloids with Potent Antibacterial In Vitro and In Vivo Efficacy against Methicillin-Resistant Staphylococcus aureus” (J Med Chem, 2020).
Converted amounts (≈) assume the structure as drawn. The source made the active and inactive calls. The calls are words filed in the database; no cut-off is given here.

Assays:
Acinetobacter baumannii [1] = experiment: Antibacterial activity against Acinetobacter baumannii ATCC BAA-1605 at 0.78 to 100 uM after 24 hrs by broth microdilution method; assay type: functional, organism-based; conditions: dose microM 0.78-100, time 24.0 hrs
[2] = tested on: Mycobacterium tuberculosis; experiment: Antibacterial activity against Mycobacterium tuberculosis H37Rv at 0.78 to 100 uM after 5 days by resazurin dye based fluorescence assay; assay type: functional, organism-based; conditions: dose microM 0.78-100, time 5.0 day
Staphylococcus aureus [3] = experiment: Antibacterial activity against […] Staphylococcus aureus ATCC 700699 after 24 hrs by broth microdilution method; assay type: functional
Pseudomonas aeruginosa = experiment: Antibacterial activity against Pseudomonas aeruginosa ATCC 27853 measured after 24 hrs by broth microdilution method; assay type: functional
Acinetobacter baumannii [4] = experiment: Antibacterial activity against Acinetobacter baumannii ATCC BAA-1605 after 24 hrs by broth microdilution method; assay type: functional
Escherichia coli = experiment: Antimicrobial activity against Escherichia coli ATCC BAA 2469 after 24 hrs by broth microdilution assay; assay type: functional
Klebsiella pneumoniae = experiment: Antibacterial activity against Klebsiella pneumoniae ATCC 700603 after 24 hrs by broth microdilution method; assay type: functional
[5] = Selectivity index, ratio of IC50 for cytotoxicity against human THP-1 cells to MIC90 for antibacterial activity against […] Staphylococcus aureus ATCC 700699; assay type: toxicity, cell-based; conditions: read-out: Selectivity Index
MRC5 = experiment: Cytotoxicity against human MRC5 cells assessed as reduction in cell viability at >=12.5 uM measured after 48 hrs by resazurin dye based fluorescence assay; conditions: mrc5, 48 h
THP-1 = experiment: Cytotoxicity against human THP-1 cells assessed as reduction in cell viability at >=12.5 uM measured after 48 hrs by resazurin dye based fluorescence assay; conditions: thp-1, 48 h
Enterococcus faecium [6] = experiment: Antibacterial activity against vancomycin-resistant Enterococcus faecium ATCC 35667 at 0.78 to 100 uM after 24 hrs by broth microdilution method; assay type: functional, organism-based; conditions: dose microM 0.78-100, time 24.0 hrs
Enterococcus faecium [7] = experiment: Antibacterial activity against vancomycin-resistant Enterococcus faecium ATCC 700221 at 0.78 to 100 uM after 24 hrs by broth microdilution method; assay type: functional, organism-based; conditions: dose microM 0.78-100, time 24.0 hrs
Enterococcus faecalis [8] = experiment: Antibacterial activity against Enterococcus faecalis ATCC 51299 at 0.78 to 100 uM after 24 hrs by broth microdilution method; assay type: functional, organism-based; conditions: dose microM 0.78-100, time 24.0 hrs
Enterococcus faecalis [9] = experiment: Antibacterial activity against Enterococcus faecalis ATCC 29212 at 0.78 to 100 uM after 24 hrs by broth microdilution method; assay type: functional, organism-based; conditions: dose microM 0.78-100, time 24.0 hrs
Staphylococcus aureus [10] = experiment: Antibacterial activity against methicillin susceptible Staphylococcus aureus ATCC 25923 at 0.78 to 100 uM after 24 hrs by broth microdilution method; assay type: functional, organism-based; conditions: dose microM 0.78-100, time 24.0 hrs
[11] = Selectivity index, ratio of IC50 for cytotoxicity against human MRC5 cells to MIC90 for antibacterial activity against […] Staphylococcus aureus ATCC 700699; assay type: toxicity, cell-based; conditions: read-out: Selectivity Index
HEK293 = experiment: Cytotoxicity against HEK293 cells assessed as reduction in cell viability at >12.5 uM measured after 48 hrs by resazurin dye based fluorescence assay; conditions: human, hek293, 48 h
HepG2 = experiment: Cytotoxicity against human HepG2 cells assessed as reduction in cell viability at >12.5 uM measured after 48 hrs by resazurin dye based fluorescence assay; conditions: hepg2, 48 h
[12] = Cytotoxicity against human CLS-54 cells assessed as reduction in cell viability at >12.5 uM measured after 48 hrs by resazurin dye based fluorescence assay; conditions: cls-54, 48 h
Staphylococcus aureus [13] = experiment: Bactericidal activity against […] Staphylococcus aureus ATCC 700699 assessed as reduction in bacterial viability at 5 fold MIC incubated for 6 hrs by time kill assay relative to control; assay type: functional
Staphylococcus aureus [14] = experiment: Bactericidal activity against […] Staphylococcus aureus ATCC 700699 assessed as colony forming units at 5 fold MIC measured after 24 hrs by time kill assay; assay type: functional
Staphylococcus aureus [15] = experiment: Antibacterial activity against methicillin-resistant Staphylococcus aureus USA300 LAC at 0.15 to 25 uM incubated for 24 hrs under low glucose medium by resazurin dye based fluorescence assay; assay type: functional, organism-based; conditions: dose microM 0.15-25, time 24.0 hrs
Staphylococcus aureus [16] = experiment: Antibacterial activity against methicillin-resistant Staphylococcus aureus USA300 LAC at 0.15 to 25 uM incubated for 24 hrs under low pyruvate containing medium by resazurin dye based fluorescence assay; assay type: functional, organism-based; conditions: dose microM 0.15-25, time 24.0 hrs
Staphylococcus aureus [17] = experiment: Antibacterial activity against methicillin-resistant pyruvate kinase deficient Staphylococcus aureus USA300 LAC at 0.15 to 25 uM incubated for 24 hrs under low pyruvate containing medium by resazurin dye based fluorescence assay; assay type: functional, organism-based; conditions: dose microM 0.15-25, time 24.0 hrs
Staphylococcus aureus [18] = experiment: Inhibition of Staphylococcus aureus ATCC 700699 N-terminal His6-tagged pyruvate kinase expressed in Escherichia coli NiCo21(DE3) at 12.5 uM using phosphoenolpyruvate as substrate measured for 5 mins by LDH-coupled assay
[19] = target: Pyruvate kinase PKM (Oryctolagus cuniculus) (UniProt P11974); experiment: Inhibition of rabbit muscle pyruvate kinase up to 12.5 uM using phosphoenolpyruvate as substrate measured for 5 mins by LDH-coupled assay; conditions: dose microM <=12.5, time 5.0 min
Sequence of Pyruvate kinase PKM (Oryctolagus cuniculus) (P11974 whole entry): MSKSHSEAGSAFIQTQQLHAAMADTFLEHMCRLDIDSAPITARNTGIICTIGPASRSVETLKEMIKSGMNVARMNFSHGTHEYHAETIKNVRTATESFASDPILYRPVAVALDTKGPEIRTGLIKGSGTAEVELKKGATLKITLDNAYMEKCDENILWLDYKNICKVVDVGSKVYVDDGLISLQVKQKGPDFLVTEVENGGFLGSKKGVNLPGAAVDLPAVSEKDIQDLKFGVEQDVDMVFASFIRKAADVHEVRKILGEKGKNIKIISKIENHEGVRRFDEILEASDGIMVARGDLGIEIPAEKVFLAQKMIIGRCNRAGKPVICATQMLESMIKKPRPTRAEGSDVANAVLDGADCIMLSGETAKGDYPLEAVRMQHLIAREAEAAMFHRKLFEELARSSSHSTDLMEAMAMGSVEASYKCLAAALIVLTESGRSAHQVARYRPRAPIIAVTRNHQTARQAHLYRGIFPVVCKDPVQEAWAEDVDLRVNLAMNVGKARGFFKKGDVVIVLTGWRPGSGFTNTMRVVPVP

[20] = Solubility of compound in pH 7.7 PBS buffer; assay type: physicochemical
Cell membrane [21] = experiment: Induction of cell membrane permeabilization in methicillin resistant Staphylococcus aureus ATCC 700699 measured at 5 mins interval for 2 hrs by propidium iodide staining based fluorescence assay; assay type: subcellular
Cell membrane [22] = experiment: Induction of cell membrane permeabilization in GFP-expressing Staphylococcus aureus ATCC 700699 assessed as increase in cellular ATP leakage at 5 fold MIC measured after 0.5 hrs by Bactiter-glo assay; assay type: subcellular

c1ccc2c(-c3ccc(-c4c[nH]c5ccccc45)nn3)c[nH]c2c1
Activity (Acinetobacter baumannii [1]): inactive
Activity [2]: inactive
MIC90 (Staphylococcus aureus [3]): > 100 µM

COLISTIN
MIC (Pseudomonas aeruginosa): 0.39 µM
MIC (Acinetobacter baumannii [4]): 0.78 µM
MIC (Escherichia coli): 0.78 µM
MIC (Klebsiella pneumoniae): 1.56 µM

c1ccc2c(-c3cnc(-c4c[nH]c5ccccc45)cn3)c[nH]c2c1
Activity (Acinetobacter baumannii [1]): inactive
Activity [2]: inactive
MIC90 (Staphylococcus aureus [3]): > 100 µM

Clc1ccc2[nH]cc(-c3ccnc(-c4c[nH]c5ccc(Cl)cc45)n3)c2c1
selectivity ratio [5]: 32
Activity (MRC5): Toxic
Activity (THP-1): Toxic
Activity (Enterococcus faecium [6]): Active
Activity (Enterococcus faecium [7]): Active
Activity (Enterococcus faecalis [8]): Active
Activity (Enterococcus faecalis [9]): Active
Activity (Acinetobacter baumannii [1]): Active
Activity [2]: Active
Activity (Staphylococcus aureus [10]): Active
MIC90 (Staphylococcus aureus [3]): 3.13 µM (≈ 1.19 µg/mL)
selectivity ratio [11]: 32
Activity (HEK293): Toxic
Activity (HepG2): Toxic
Activity [12]: Toxic
fold change (FC) (Staphylococcus aureus [13]): 10000
Activity (Staphylococcus aureus [14]): <10 CFU/ml
Activity (Staphylococcus aureus [15]): Active
Activity (Staphylococcus aureus [16]): Active
Activity (Staphylococcus aureus [17]): Active
inhibition (Staphylococcus aureus [18]): inactive
inhibition [19]: inactive

Clc1ccc2[nH]cc(-c3cncc(-c4c[nH]c5ccc(Cl)cc45)n3)c2c1
Activity (Acinetobacter baumannii [1]): inactive
Activity [2]: inactive
MIC90 (Staphylococcus aureus [3]): 0.39 µM (≈ 0.148 µg/mL)
solubility [20]: Insoluble

c1cc(-c2c[nH]c3ncccc23)nc(-c2c[nH]c3ncccc23)c1
Activity (Acinetobacter baumannii [1]): inactive
Activity [2]: inactive
MIC90 (Staphylococcus aureus [3]): > 100 µM

Brc1ccc2c(-c3cnc(-c4c[nH]c5cc(Br)ccc45)cn3)c[nH]c2c1
Activity (Acinetobacter baumannii [1]): inactive
Activity [2]: inactive
MIC90 (Staphylococcus aureus [3]): > 100 µM

c1ccc2c(-c3cnc(-c4c[nH]c5ccccc45)nc3)c[nH]c2c1
Activity (Acinetobacter baumannii [1]): inactive
Activity [2]: inactive
MIC90 (Staphylococcus aureus [3]): 12.5 µM (≈ 3.88 µg/mL)

COc1ccc2[nH]cc(-c3cnc(-c4c[nH]c5ccc(OC)cc45)cn3)c2c1
Activity (Enterococcus faecium [6]): inactive
Activity (Enterococcus faecium [7]): inactive
Activity (Enterococcus faecalis [8]): inactive
Activity (Enterococcus faecalis [9]): inactive
Activity (Acinetobacter baumannii [1]): inactive
Activity [2]: inactive
Activity (Staphylococcus aureus [10]): inactive
MIC90 (Staphylococcus aureus [3]): > 100 µM

Fc1ccc2[nH]cc(-c3cnc(-c4c[nH]c5ccc(F)cc45)nc3)c2c1
Activity (Acinetobacter baumannii [1]): inactive
Activity [2]: inactive
MIC90 (Staphylococcus aureus [3]): 12.5 µM (≈ 4.33 µg/mL)

Brc1ccc2[nH]cc(-c3cnc(-c4c[nH]c5ccc(Br)cc45)cn3)c2c1
selectivity ratio [5]: 8
Activity (MRC5): Toxic
Activity (THP-1): Toxic
Activity (Acinetobacter baumannii [1]): inactive
Activity [2]: inactive
MIC90 (Staphylococcus aureus [3]): 1.56 µM (≈ 0.73 µg/mL)
solubility [20]: Insoluble
selectivity ratio [11]: 8
fold change (FC) (Staphylococcus aureus [13]): 10000
Activity (Staphylococcus aureus [15]): Active
Activity (Staphylococcus aureus [16]): Active
Activity (Staphylococcus aureus [17]): Active

COc1ccc2[nH]cc(-c3cnc(-c4c[nH]c5ccc(OC)cc45)nc3)c2c1
Activity (Enterococcus faecium [6]): inactive
Activity (Enterococcus faecium [7]): inactive
Activity (Enterococcus faecalis [8]): inactive
Activity (Enterococcus faecalis [9]): inactive
Activity (Acinetobacter baumannii [1]): inactive
Activity [2]: inactive
Activity (Staphylococcus aureus [10]): inactive
MIC90 (Staphylococcus aureus [3]): 50 µM (≈ 18.5 µg/mL)

c1cc(-c2c[nH]c3ccccc23)nc(-c2c[nH]c3ccccc23)c1
Activity (Acinetobacter baumannii [1]): inactive
Activity [2]: inactive
MIC90 (Staphylococcus aureus [3]): > 100 µM

CC(=O)NC[C@H]1CN(c2ccc(N3CCOCC3)c(F)c2)C(=O)O1
Activity (Cell membrane [21]): inactive
Activity (Cell membrane [22]): inactive

Oc1ccc2[nH]cc(-c3cnc(-c4c[nH]c5ccc(O)cc45)nc3)c2c1 [HYRTINADINE A]
Activity (Enterococcus faecium [6]): inactive
Activity (Enterococcus faecium [7]): inactive
Activity (Enterococcus faecalis [8]): inactive
Activity (Enterococcus faecalis [9]): inactive
Activity (Acinetobacter baumannii [1]): inactive
Activity [2]: inactive
Activity (Staphylococcus aureus [10]): inactive
MIC90 (Staphylococcus aureus [3]): > 100 µM

Fc1ccc2[nH]cc(-c3cnc(-c4c[nH]c5ccc(F)cc45)cn3)c2c1
Activity (Acinetobacter baumannii [1]): inactive
Activity [2]: inactive
MIC90 (Staphylococcus aureus [3]): > 100 µM

COc1c(N2C[C@@H]3CCCN[C@@H]3C2)c(F)cc2c(=O)c(C(=O)O)cn(C3CC3)c12
Activity (Cell membrane [21]): inactive
Activity (Cell membrane [22]): inactive

COc1ccc2[nH]cc(-c3cccc(-c4c[nH]c5ccc(OC)cc45)n3)c2c1
Activity (Acinetobacter baumannii [1]): inactive
Activity [2]: inactive
MIC90 (Staphylococcus aureus [3]): 12.5 µM (≈ 4.62 µg/mL)

Oc1ccc2[nH]cc(-c3cnc(-c4c[nH]c5ccc(O)cc45)cn3)c2c1
Activity (Enterococcus faecium [6]): inactive
Activity (Enterococcus faecium [7]): inactive
Activity (Enterococcus faecalis [8]): inactive
Activity (Enterococcus faecalis [9]): inactive
Activity (Acinetobacter baumannii [1]): inactive
Activity [2]: inactive
Activity (Staphylococcus aureus [10]): inactive
MIC90 (Staphylococcus aureus [3]): > 100 µM

Clc1ccc2[nH]cc(-c3ccc(-c4c[nH]c5ccc(Cl)cc45)nn3)c2c1
selectivity ratio [5]: 8
Activity (MRC5): Toxic
Activity (THP-1): Toxic
Activity (Acinetobacter baumannii [1]): inactive
Activity [2]: inactive
MIC90 (Staphylococcus aureus [3]): 0.78 µM (≈ 0.296 µg/mL)
selectivity ratio [11]: 8
fold change (FC) (Staphylococcus aureus [13]): 100
Activity (Staphylococcus aureus [14]): <10 CFU/ml
Activity (Staphylococcus aureus [15]): Active
Activity (Staphylococcus aureus [16]): Active
Activity (Staphylococcus aureus [17]): Active
